Values joined by “and” are separate entries in the source; they are usually repeats but may differ in a detail not shown here. Identical values can stand only once.
Tests used:
Type in all cases: cell-based, human
[1] = test system: non-senescent control A549 cells; assay: Nuclei count senolytic assay, TIS model, non-senescent control cells; details: for Mean % Cell Survival: Control cells; for % Cell Survival: control cells, single replicate
Method in brief: (§1)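 Etoposide 100 μM, 48 h, + 3 d standard media → senescent A549; untreated A549 = controls. 24 h post-seeding, cpds 10 nM–10 μM final, 10-pt […], 72 h, n=3. Fix formaldehyde, permeabilise Triton-X100, Hoechst 2 μg/ml, image, count nuclei.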

[2] = test system: senescent A549 cells (etoposide-induced); assay: Nuclei count senolytic assay, therapy-induced senescence (TIS) model, senescent cells; details: for Mean % Cell Survival: Senescent cells; for % Cell Survival: senescence cells, single replicate
Method in brief: as §1

[3] = test system: non-senescent control IMR90 ER:RAS cells; assay: Nuclei count (Hoechst, high content imaging) senolytic assay, OIS model, non-senescent control cells; details: for Mean % Cell Survival: Control, mean n=3 (Fig 3C); for % Cell Survival: control
Method in brief: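 IMR90 ER:RAS (p14), ±4-OHT 100 nM; cpd 10 nM–10 μM, 10-pt […], 72 h, n=3. Fix formaldehyde, Triton X-100, Hoechst 2 μg/ml final. Readout: imaged nuclei count vs untreated; ouabain positive control.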

`CO[C@H]1C[C@H](O[C@H]2CC[C@]3(C)[C@H]4CC[C@]5(C)[C@@H](C6=CC(=O)OC6)CC[C@]5(O)[C@@H]4CC[C@]3(O)C2)O[C@H](C)[C@H]1O[C@@H]1O[C@H](CO)[C@@H](O)[C@H](O)[C@H]1O` [Periplocin, periplocin] was tested, and the IC50 ([1]; TIS model, non-senescent A549, nuclei count, 72 h) was 267 nM, the “Mean % Cell Survival” value ([1]; log (dose) [M] -5) was 2.124% and the “% Cell Survival” value ([1]; log (dose) [M] -5) was 2.877% and 2.211% and 1.286%. For the same compound, the “Mean % Cell Survival” value ([1]; log (dose) [M] -5.33) was 3.638%, the “% Cell Survival” value ([1]; log (dose) [M] -5.33) was 1.2112% and 8.916% and 0.7857% and the “Mean % Cell Survival” value ([1]; log (dose) [M] -5.66) was 7.571%. For the same compound, the “% Cell Survival” value ([1]; log (dose) [M] -5.66) was 13.9288% and 0.7846% and 8%, the “Mean % Cell Survival” value ([1]; log (dose) [M] -6) was 7.77% and the “% Cell Survival” value ([1]; log (dose) [M] -6) was 11.9606% and 5.492% and 5.857%. The “Mean % Cell Survival” value ([1]; log (dose) [M] -6.33) was 26.1787%, the “% Cell Survival” value ([1]; log (dose) [M] -6.33) was 37.7744% and 16.7618% and 24% and the “Mean % Cell Survival” value ([1]; log (dose) [M] -6.66) was 59.1283%. The “% Cell Survival” value ([1]; log (dose) [M] -6.66) was 65.1022% and 52.2111% and 60.0714%, the “Mean % Cell Survival” value ([1]; log (dose) [M] -7) was 84.2496% and the “% Cell Survival” value ([1]; log (dose) [M] -7) was 92.3543% and 73.8231% and 86.5714%. The “Mean % Cell Survival” value ([1]; log (dose) [M] -7.33) was 108.222%, the “% Cell Survival” value ([1]; log (dose) [M] -7.33) was 116.881% and 101.07% and 106.714% and the “Mean % Cell Survival” value ([1]; log (dose) [M] -7.66) was 106.048%. For the same compound, the “% Cell Survival” value ([1]; log (dose) [M] -7.66) was 102.877% and 112.197% and 103.071%, the “Mean % Cell Survival” value ([1]; log (dose) [M] -8) was 97.1202% and the “% Cell Survival” value ([1]; log (dose) [M] -8) was 99.8486% and 91.5121% and 100%. For the same compound, the “concentration at which a senolytic effect was reached” value ([2]; TIS A549, Hoechst labelling, marginal effect on normal cells) was 46.4 nM, the IC50 ([2]; TIS model, etoposide-induced senescent A549, nuclei count, 72 h) was 72.2 nM and the “senolytic action (in words)” value ([2]; experimental screen, TIS senescent A549) was “strong senolytic action”. The “Mean % Cell Survival” value ([2]; log (dose) [M] -5) was 2.656%, the “% Cell Survival” value ([2]; log (dose) [M] -5) was 2.664% and 2.743% and 2.561% and the “Mean % Cell Survival” value ([2]; log (dose) [M] -5.33) was 3.4604%. For the same compound, the “% Cell Survival” value ([2]; log (dose) [M] -5.33) was 2.7192% and 5.421% and 2.241%, the “Mean % Cell Survival” value ([2]; log (dose) [M] -5.66) was 3.427% and the “% Cell Survival” value ([2]; log (dose) [M] -5.66) was 2.83% and 4.507% and 2.945%. For the same compound, the “Mean % Cell Survival” value ([2]; log (dose) [M] -6) was 6.477%, the “% Cell Survival” value ([2]; log (dose) [M] -6) was 6.937% and 6.9889% and 5.506% and the “Mean % Cell Survival” value ([2]; log (dose) [M] -6.33) was 11.1387%. For the same compound, the “% Cell Survival” value ([2]; log (dose) [M] -6.33) was 13.0411% and 10.516% and 9.859%, the “Mean % Cell Survival” value ([2]; log (dose) [M] -6.66) was 17.1368% and the “% Cell Survival” value ([2]; log (dose) [M] -6.66) was 19.7003% and 13.9125% and 17.7977%. The “Mean % Cell Survival” value ([2]; log (dose) [M] -7) was 34.3857%, the “% Cell Survival” value ([2]; log (dose) [M] -7) was 35.4051% and 33.1809% and 34.5711% and the “Mean % Cell Survival” value ([2]; log (dose) [M] -7.33) was 62.5957%. For the same compound, the “% Cell Survival” value ([2]; log (dose) [M] -7.33) was 65.3163% and 61.2671% and 61.2036%, the “Mean % Cell Survival” value ([2]; log (dose) [M] -7.66) was 94.3691% and the “% Cell Survival” value ([2]; log (dose) [M] -7.66) was 88.7902% and 97.518% and 96.799%. For the same compound, the “Mean % Cell Survival” value ([2]; log (dose) [M] -8) was 98.9494%, the “% Cell Survival” value ([2]; log (dose) [M] -8) was 101.831% and 100.523% and 94.4942% and the “Mean % Cell Survival” value ([3]; log (dose) [M] -5, 72 h) was 18.4295%. The “Mean % Cell Survival” value ([3]; log (dose) [M] -5.33, 72 h) was 19.4604%, the “Mean % Cell Survival” value ([3]; log (dose) [M] -5.66, 72 h) was 23.5452% and the “Mean % Cell Survival” value ([3]; log (dose) [M] -6, 72 h) was 29.0681%. For the same compound, the “Mean % Cell Survival” value ([3]; log (dose) [M] -6.33, 72 h) was 43.2104%, the “Mean % Cell Survival” value ([3]; log (dose) [M] -6.66, 72 h) was 52.7161% and the “Mean % Cell Survival” value ([3]; log (dose) [M] -7, 72 h) was 63.4586%. For the same compound, the “Mean % Cell Survival” value ([3]; log (dose) [M] -7.33, 72 h) was 71.1117%, the “Mean % Cell Survival” value ([3]; log (dose) [M] -7.66, 72 h) was 89.3621% and the “Mean % Cell Survival” value ([3]; log (dose) [M] -8, 72 h) was 91.9585%. The IC50 ([3]; OIS model, non-senescent IMR90 ER:RAS, nuclei count, 72 h) was 300 nM, the “% Cell Survival” value ([3]; log (dose) [M] -5, individual replicates (Fig 3D)) was 15.9071% and 11.1013% and 28.2801% and the “% Cell Survival” value ([3]; log (dose) [M] -5.33, individual replicates (Fig 3D)) was 20.9802% and 15.9471% and 21.4539%. For the same compound, the “% Cell Survival” value ([3]; log (dose) [M] -5.66, individual replicates (Fig 3D)) was 25.1075% and 20.6167% and 24.9113%, the “% Cell Survival” value ([3]; log (dose) [M] -6, individual replicates (Fig 3D)) was 32.8461% and 26.2555% and 28.1028% and the “% Cell Survival” value ([3]; log (dose) [M] -6.33, individual replicates (Fig 3D)) was 39.8108% and 40.3524% and 49.4681%. For the same compound, the “% Cell Survival” value ([3]; log (dose) [M] -6.66, individual replicates (Fig 3D)) was 51.9347% and 55.859% and 50.3546%, the “% Cell Survival” value ([3]; log (dose) [M] -7, individual replicates (Fig 3D)) was 57.6956% and 62.3789% and 70.3014% and the “% Cell Survival” value ([3]; log (dose) [M] -7.33, individual replicates (Fig 3D)) was 64.4884% and 71.5419% and 77.305%. For the same compound, the “% Cell Survival” value ([3]; log (dose) [M] -7.66, individual replicates (Fig 3D)) was 94.8409% and 82.7313% and 90.5142% and the “% Cell Survival” value ([3]; log (dose) [M] -8, individual replicates (Fig 3D)) was 93.6371% and 90.7489% and 91.4894%.
